Source: patent US6852673B2, “Herbicidal pyridine compounds” (BASF Aktiengesellschaft, priority 1998, dated 2005)

Key:
Type in all cases: in vivo
[1] = tested on: Echinochloa grus galli (ECHCG); assay: Pre-emergence herbicidal evaluation, barnyard grass
Outline: (§1)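 Soil-surface spray of sown pots, about 0.0125 to 0.4 kg/ha, aqueous acetone carrier. Scored visually on a rating scale 2 to 4 weeks post-treatment.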

Setaria viridis (SETVI) [2] = assay: Post-emergence herbicidal evaluation, green foxtail; conditions: rated 2 to 4 weeks after treatment
Outline: (§2)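 Rating scale 0 (same growth as untreated control) to 9 (death), scored 2–4 weeks after treatment. Sprays were water-diluted acetone solutions applied to emerged plants at about 0.03–0.4 kg/ha test compound per pot, followed by standard greenhouse care.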

Hordeum vulgare (HORVW) = assay: Post-emergence herbicidal evaluation, winter barley; conditions: rated 2 to 4 weeks after treatment
Outline: as §2

[3] = tested on: Triticum aestivum (TRZAW); assay: Post-emergence herbicidal evaluation, winter wheat; conditions: rated 2 to 4 weeks after treatment
Outline: as §2

[4] = tested on: Alopecurus myosuroides (ALOMY); assay: Post-emergence herbicidal evaluation, black grass; conditions: rated 2 to 4 weeks after treatment
Outline: as §2

[5] = tested on: Ambrosia artemiisifolia (AMBEL); assay: Post-emergence herbicidal evaluation, ragweed; conditions: rated 2 to 4 weeks after treatment
Outline: as §2

[6] = tested on: Ipomoea hederacea (IPOHE); assay: Post-emergence herbicidal evaluation, morning glory; conditions: rated 2 to 4 weeks after treatment
Outline: as §2

Zea mays (ZEAMX) [7] = assay: Post-emergence herbicidal evaluation, maize; conditions: rated 2 to 4 weeks after treatment
Outline: as §2

Solanum nigrum (SOLNI) = assay: Post-emergence herbicidal evaluation, black nightshade; conditions: rated 2 to 4 weeks after treatment
Outline: as §2

Stellaria media (STEME) [8] = assay: Pre-emergence herbicidal evaluation, chickweed
Outline: as §1

[9] = tested on: Alopecurus myosuroides (ALOMY); assay: Pre-emergence herbicidal evaluation, black grass
Outline: as §1

[10] = tested on: Triticum aestivum (TRZAW); assay: Pre-emergence herbicidal evaluation, winter wheat
Outline: as §1

Lamium purpureum (LAMPU) [11] = assay: Post-emergence herbicidal evaluation, purple deadnettle; conditions: rated 2 to 4 weeks after treatment
Outline: as §2

Zea mays (ZEAMX) [12] = assay: Pre-emergence herbicidal evaluation, maize
Outline: as §1

Glycine max (GLXMA) [13] = assay: Pre-emergence herbicidal evaluation, soyabeans
Outline: as §1

Lamium purpureum (LAMPU) [14] = assay: Pre-emergence herbicidal evaluation, purple deadnettle
Outline: as §1

Glycine max (GLXMA) [15] = assay: Post-emergence herbicidal evaluation, soyabeans; conditions: rated 2 to 4 weeks after treatment
Protocol: (§3) [table] [table] […] These acetone solutions are diluted with water and the resulting formulations applied at dosage levels equivalent of about 0.03 to 0.4 kg per hectare of test compound per pot. After spraying the plants are placed on greenhouse benches and are cared for in the usual manner, commensurate with conventional greenhouse practices. From 2 to 4 weeks after treatment, the seedling plants are examined and rated according to the rating system provided above. A rating 0 indicates growth as untreated control, a rating 9 indicates death.

[16] = tested on: Matricaria inodora (MATIN); assay: Post-emergence herbicidal evaluation, mayweed; conditions: rated 2 to 4 weeks after treatment
Outline: as §2

[17] = tested on: Ambrosia artemiisifolia (AMBEL); assay: Pre-emergence herbicidal evaluation, ragweed
Outline: as §1

[18] = tested on: Abutilon theophrasti (ABUTH); assay: Pre-emergence herbicidal evaluation, velvetleaf
Outline: as §1

[19] = tested on: Digitaria sanguinalis (DIGSA); assay: Post-emergence herbicidal evaluation, large crabgrass; conditions: rated 2 to 4 weeks after treatment
Outline: as §2

[20] = tested on: Echinochloa grus galli (ECHCG); assay: Post-emergence herbicidal evaluation, barnyard grass; conditions: rated 2 to 4 weeks after treatment
Protocol: as §3

Galium aparine (GALAP) = assay: Pre-emergence herbicidal evaluation, cleaver
Outline: as §1

Setaria viridis (SETVI) [21] = assay: Pre-emergence herbicidal evaluation, green foxtail
Outline: as §1

Stellaria media (STEME) [22] = assay: Post-emergence herbicidal evaluation, chickweed; conditions: rated 2 to 4 weeks after treatment
Outline: as §2

Oryza sativum (ORYSA) = assay: Pre-emergence herbicidal evaluation, rice
Outline: as §1

Cc1cc(OC/C=C/C(F)(F)F)nc(Oc2cc(C(F)(F)F)nn2C)c1 [Example 1, (E)-2-(1-Methyl-3-trifluoromethylpyrazol-5-yloxy)-4-methyl-6-(4,4,4-trifluorobut-2-enyloxy)pyridine]
ECHCG rating ([1]; dose 0.013 kg/ha): 3 (3 - Moderate effect) | ECHCG rating ([1]; dose 0.025 kg/ha): 5 (5 - Definite injury) | ECHCG rating ([1]; dose 0.1 kg/ha): 7 (7 - Good herbicidal effect) | ECHCG rating ([1]; dose 0.4 kg/ha): 9 (9 - Complete kill) | SETVI rating (Setaria viridis (SETVI) [2]; dose 0.03 kg/ha): 5 (5 - Definite injury) | SETVI rating (Setaria viridis (SETVI) [2]; dose 0.1 kg/ha): 8 (8 - Approaching complete kill) | SETVI rating (Setaria viridis (SETVI) [2]; dose 0.4 kg/ha): 8 (8 - Approaching complete kill) | HORVW rating (Hordeum vulgare (HORVW); dose 0.03 kg/ha): 3 (3 - Moderate effect) | HORVW rating (Hordeum vulgare (HORVW); dose 0.1 kg/ha): 5 (5 - Definite injury) | HORVW rating (Hordeum vulgare (HORVW); dose 0.4 kg/ha): 5 (5 - Definite injury) | TRZAW rating ([3]; dose 0.03 kg/ha): 2 (2 - Slight effect) | TRZAW rating ([3]; dose 0.1 kg/ha): 3 (3 - Moderate effect) | TRZAW rating ([3]; dose 0.4 kg/ha): 5 (5 - Definite injury) | ALOMY rating ([4]; dose 0.03 kg/ha): 6 (6 - Herbicidal effect) | ALOMY rating ([4]; dose 0.1 kg/ha): 8 (8 - Approaching complete kill) | ALOMY rating ([4]; dose 0.4 kg/ha): 8 (8 - Approaching complete kill) | AMBEL rating ([5]; dose 0.03 kg/ha): 6 (6 - Herbicidal effect) | AMBEL rating ([5]; dose 0.1 kg/ha): 7 (7 - Good herbicidal effect) | AMBEL rating ([5]; dose 0.4 kg/ha): 7 (7 - Good herbicidal effect) | IPOHE rating ([6]; dose 0.03 kg/ha): 9 (9 - Complete kill) | IPOHE rating ([6]; dose 0.1 kg/ha): 9 (9 - Complete kill) | IPOHE rating ([6]; dose 0.4 kg/ha): 9 (9 - Complete kill) | ZEAMX rating (Zea mays (ZEAMX) [7]; dose 0.03 kg/ha): 2 (2 - Slight effect) | ZEAMX rating (Zea mays (ZEAMX) [7]; dose 0.1 kg/ha): 5 (5 - Definite injury) | ZEAMX rating (Zea mays (ZEAMX) [7]; dose 0.4 kg/ha): 6 (6 - Herbicidal effect) | SOLNI rating (Solanum nigrum (SOLNI); dose 0.03 kg/ha): 5 (5 - Definite injury) | SOLNI rating (Solanum nigrum (SOLNI); dose 0.1 kg/ha): 5 (5 - Definite injury) | SOLNI rating (Solanum nigrum (SOLNI); dose 0.4 kg/ha): 5 (5 - Definite injury) | activity against Stellaria (Stellaria media (STEME) [8]): superior activity | STEME rating (Stellaria media (STEME) [8]; dose 0.013 kg/ha): 5 (5 - Definite injury) | STEME rating (Stellaria media (STEME) [8]; dose 0.025 kg/ha): 9 (9 - Complete kill) | STEME rating (Stellaria media (STEME) [8]; dose 0.1 kg/ha): 9 (9 - Complete kill) | STEME rating (Stellaria media (STEME) [8]; dose 0.4 kg/ha): 9 (9 - Complete kill) | ALOMY rating ([9]; dose 0.013 kg/ha): 4 (4 - Injury) | ALOMY rating ([9]; dose 0.025 kg/ha): 6 (6 - Herbicidal effect) | ALOMY rating ([9]; dose 0.1 kg/ha): 8 (8 - Approaching complete kill) | ALOMY rating ([9]; dose 0.4 kg/ha): 9 (9 - Complete kill) | TRZAW rating ([10]; dose 0.013 kg/ha): 1 (1 - Trace effect) | TRZAW rating ([10]; dose 0.025 kg/ha): 1 (1 - Trace effect) | TRZAW rating ([10]; dose 0.1 kg/ha): 3 (3 - Moderate effect) | TRZAW rating ([10]; dose 0.4 kg/ha): 4 (4 - Injury) | LAMPU rating (Lamium purpureum (LAMPU) [11]; dose 0.03 kg/ha): 8 (8 - Approaching complete kill) | LAMPU rating (Lamium purpureum (LAMPU) [11]; dose 0.1 kg/ha): 8 (8 - Approaching complete kill) | LAMPU rating (Lamium purpureum (LAMPU) [11]; dose 0.4 kg/ha): 8 (8 - Approaching complete kill) | ZEAMX rating (Zea mays (ZEAMX) [12]; dose 0.013 kg/ha): 1 (1 - Trace effect) | ZEAMX rating (Zea mays (ZEAMX) [12]; dose 0.025 kg/ha): 2 (2 - Slight effect) | ZEAMX rating (Zea mays (ZEAMX) [12]; dose 0.4 kg/ha): 5 (5 - Definite injury) | GLXMA rating (Glycine max (GLXMA) [13]; dose 0.013 kg/ha): 1 (1 - Trace effect) | GLXMA rating (Glycine max (GLXMA) [13]; dose 0.025 kg/ha): 1 (1 - Trace effect) | GLXMA rating (Glycine max (GLXMA) [13]; dose 0.1 kg/ha): 4 (4 - Injury) | GLXMA rating (Glycine max (GLXMA) [13]; dose 0.4 kg/ha): 5 (5 - Definite injury) | LAMPU rating (Lamium purpureum (LAMPU) [14]; dose 0.013 kg/ha): 8 (8 - Approaching complete kill) | LAMPU rating (Lamium purpureum (LAMPU) [14]; dose 0.025 kg/ha): 9 (9 - Complete kill) | LAMPU rating (Lamium purpureum (LAMPU) [14]; dose 0.1 kg/ha): 9 (9 - Complete kill) | LAMPU rating (Lamium purpureum (LAMPU) [14]; dose 0.4 kg/ha): 9 (9 - Complete kill) | GLXMA rating (Glycine max (GLXMA) [15]; dose 0.03 kg/ha): 6 (6 - Herbicidal effect) | GLXMA rating (Glycine max (GLXMA) [15]; dose 0.1 kg/ha): 8 (8 - Approaching complete kill) | GLXMA rating (Glycine max (GLXMA) [15]; dose 0.4 kg/ha): 8 (8 - Approaching complete kill) | MATIN rating ([16]; dose 0.03 kg/ha): 8 (8 - Approaching complete kill) | MATIN rating ([16]; dose 0.1 kg/ha): 8 (8 - Approaching complete kill) | MATIN rating ([16]; dose 0.4 kg/ha): 8 (8 - Approaching complete kill) | AMBEL rating ([17]; dose 0.013 kg/ha): 5 (5 - Definite injury) | AMBEL rating ([17]; dose 0.025 kg/ha): 9 (9 - Complete kill) | AMBEL rating ([17]; dose 0.1 kg/ha): 9 (9 - Complete kill) | AMBEL rating ([17]; dose 0.4 kg/ha): 9 (9 - Complete kill) | activity against Abutilon [18]: superior activity | ABUTH rating ([18]; dose 0.013 kg/ha): 7 (7 - Good herbicidal effect) | ABUTH rating ([18]; dose 0.025 kg/ha): 7 (7 - Good herbicidal effect) | ABUTH rating ([18]; dose 0.1 kg/ha): 8 (8 - Approaching complete kill) | ABUTH rating ([18]; dose 0.4 kg/ha): 9 (9 - Complete kill) | DIGSA rating ([19]; dose 0.03 kg/ha): 7 (7 - Good herbicidal effect) | DIGSA rating ([19]; dose 0.1 kg/ha): 8 (8 - Approaching complete kill) | DIGSA rating ([19]; dose 0.4 kg/ha): 8 (8 - Approaching complete kill) | ECHCG rating ([20]; dose 0.03 kg/ha): 5 (5 - Definite injury) | ECHCG rating ([20]; dose 0.1 kg/ha): 8 (8 - Approaching complete kill) | ECHCG rating ([20]; dose 0.4 kg/ha): 8 (8 - Approaching complete kill) | GALAP rating (Galium aparine (GALAP); dose 0.013 kg/ha): 1 (1 - Trace effect) | GALAP rating (Galium aparine (GALAP); dose 0.025 kg/ha): 2 (2 - Slight effect) | GALAP rating (Galium aparine (GALAP); dose 0.1 kg/ha): 7 (7 - Good herbicidal effect) | GALAP rating (Galium aparine (GALAP); dose 0.4 kg/ha): 9 (9 - Complete kill) | activity against Setaria (Setaria viridis (SETVI) [21]): superior activity | SETVI rating (Setaria viridis (SETVI) [21]; dose 0.013 kg/ha): 9 (9 - Complete kill) | SETVI rating (Setaria viridis (SETVI) [21]; dose 0.025 kg/ha): 9 (9 - Complete kill) | SETVI rating (Setaria viridis (SETVI) [21]; dose 0.1 kg/ha): 9 (9 - Complete kill) | SETVI rating (Setaria viridis (SETVI) [21]; dose 0.4 kg/ha): 9 (9 - Complete kill) | STEME rating (Stellaria media (STEME) [22]; dose 0.03 kg/ha): 5 (5 - Definite injury) | STEME rating (Stellaria media (STEME) [22]; dose 0.1 kg/ha): 5 (5 - Definite injury) | STEME rating (Stellaria media (STEME) [22]; dose 0.4 kg/ha): 6 (6 - Herbicidal effect) | ORYSA rating (Oryza sativum (ORYSA); dose 0.013 kg/ha): 2 (2 - Slight effect) | ORYSA rating (Oryza sativum (ORYSA); dose 0.025 kg/ha): 2 (2 - Slight effect) | ORYSA rating (Oryza sativum (ORYSA); dose 0.1 kg/ha): 4 (4 - Injury) | ORYSA rating (Oryza sativum (ORYSA); dose 0.4 kg/ha): 5 (5 - Definite injury)
